Earlier results in patent US20240115678A1, “PERSONALIZED […] CANCER THERAPY” (priority 2022, published 2024).

How the values were obtained:
[1] = tested on: neuroblastoma, bladder cancer, pancreatic cancer, mesothelioma, hepatoma cells; details: in vitro
[2] = tested on: rat PAIII androgen-independent syngeneic prostate cancer cell line; details: daily intraperitoneal for 30 days, evaluation at day 40
[3] = tested on: hypoxia inducible factor (HIF)-1
[4] = tested on: S-180 sarcoma; details: parenteral administration
[5] = tested on: battery of tumor cell lines; details: in vitro, combined with AA
[6] = tested on: vascular cord formation; details: in vivo administration
[7] = tested on: T cell, B cell and NK cells; details: high dose
[8] = tested on: human xenografted glioma, overian, and neuroblastoma cells; details: immune deficient animals
[9] = tested on: dendritic cells
[10] = tested on: HUVEC; details: in vitro
[11] = tested on: neovascularization
[12] = tested on: ovarian cancer; details: whole trial
[13] = tested on: NK cells; details: animal experiments
[14] = tested on: Treg cells
[15] = tested on: human microvascular ECs
[16] = tested on: monocytes derived from human peripheral blood
[17] = tested on: murine TECs and normal ECs; details: with up-regulation of MDR1 mRNA

For O=C1O[C@H]([C@@H](O)CO)C(O)=C1O [AA, ascorbic acid], the “cytotoxic effects on cancer cells” value [1] is listed as “cytotoxic effects at pharmacologically achievable concentrations”, the “pulmonary and lymphatic metastasis” value [2] is listed as “reduction in pulmonary and lymphatic metastasis” and the tumor growth [2] is listed as “significant inhibition of tumor growth”. For the same molecule, the “activation of HIF-1” value [3] was “suppresses activation”, the “angiogenesis and pro-angiogenic factors bFGF, VEGF, and MMP-2” value [4] was “suppression” and the tumor growth [4] was “reduced tumor growth”. For the same molecule, the “cytotoxicity of Docetaxel, Epirubicin, Irinotecan and 5-FU” value [5] was “Enhancement of cytotoxicity”, the vascular cord formation [6] was “suppressed vascular cord formation” and the NK cytotoxic activity [7] was “inhibits”. The IL-2 secretion ([7]; in vitro) was “inhibits”, the “T cell and B cell proliferative responses” value ([7]; in vitro) was “inhibits” and the “inhibition of xenografted cells” value [8] was “successful in vivo inhibition”. The “T cell activating ability of dendritic cells” value [9] was “inhibit”, the HUVEC proliferation [10] was “inhibits” and the neovascularization [11] was “suppressing neovascularization”.

In the case of “bevacizumab plus chemotherapy: Bevacizumab (Avastin), antibody which binds VEGF, given with chemotherapy”, the “median progression free survival (PFS)” value ([12]; ovarian cancer patients) is given as 6.8 months, the “median OS” value [12] is given as 16.6 months and the “HR for overall survival” value ([12]; versus chemotherapy alone, 95 percent CI: 0.69, 1.14) is given as 0.89.

In the case of Poly (IC), the “effect on Herceptin activity” value [13] is given as “augmentation of Herceptin activity”.

In the case of CC(C)[C@]12O[C@H]1[C@@H]1O[C@]13[C@]1(O[C@H]1C[C@H]1C4=C(CC[C@@]13C)C(=O)OC4)[C@@H]2O [triptolide], the “effect on Treg cells” value [14] is given as “inhibit Treg cells”.

For COc1cc2nccc(Oc3ccc(NC(=O)Nc4ccc(F)cc4F)c(F)c3)c2cc1OC [Ki8751], the “tumor CM-induced MDR1 up-regulation” value [15] is listed as “blocked”.

In the case of Nc1ccn([C@@H]2O[C@H](CO)[C@@H](O)C2(F)F)c(=O)n1 [gemcitabine], the “effect on Treg cells” value [14] is listed as “inhibit Treg cells”.

In the case of O=P1(N(CCCl)CCCl)NCCCO1 (stereo not drawn) [cyclophosphamide], the “effect on Treg cells” value [14] is given as “inhibit Treg cells”.

For CCOCc1nc2c(N)nc3ccccc3c2n1CC(C)(C)O [R-848], the “FcgammaRI, FcgammaRIIa, and the common gamma-subunit” value [16] is given as “upregulation”, the “inhibitory FcgammaRIIb molecule” value [16] is given as “profound downregulation” and the FcgammaR-mediated cytokine production ([16]; 12 hour exposure) is given as “increased”. For the same molecule, the “antibody-dependent cellular cytotoxicity by monocytes” value ([16]; 12 hour exposure) was “increased”.

For CC(=O)O[C@H]1C(=O)[C@@]2(C)[C@H]([C@H](OC(=O)c3ccccc3)[C@]3(O)C[C@H](OC(=O)[C@H](O)[C@@H](NC(=O)c4ccccc4)c4ccccc4)C(C)=C1C3(C)C)[C@]1(OC(C)=O)CO[C@@H]1C[C@@H]2O [paclitaxel], the “resistance of TECs compared with normal ECs” value [17] is listed as “more resistant”.

In the case of arsenic trioxide, the “effect on Treg cells” value [14] is listed as “inhibit Treg cells”.

B1: IL-12: stimulator of NK cells (protein, UniProt P29459 23-219; P29460 23-328, looked up)
Interleukin-12 subunit alpha: RNLPVATPDPGMFPCLHHSQNLLRAVSNMLQKARQTLEFYPCTSEEIDHEDITKDKTSTVEACLPLELTKNESCLNSRETSFITNGSCLASRKTSFMMALCLSSIYEDLKMYQVEFKTMNAKLLMDPKRQIFLDQNMLAVIDELMQALNFNSETVPQKSSLEEPDFYKTKIKLCILLHAFRIRAVTIDRVMSYLNAS
Interleukin-12 subunit beta: IWELKKDVYVVELDWYPDAPGEMVVLTCDTPEEDGITWTLDQSSEVLGSGKTLTIQVKEFGDAGQYTCHKGGEVLSHSLLLLHKKEDGIWSTDILKDQKEPKNKTFLRCEAKNYSGRFTCWWLTTISTDLTFSVKSSRGSSDPQGVTCGAATLSAERVRGDNKEYEYSVECQEDSACPAAEESLPIEVMVDAVHKLKYENYTSSFFIRDIIKPDPPKNLQLKPLKNSRQVEVSWEYPDTWSTPHSYFSLTFCVQVQGKSKREKKDRVFTDKTSATVICRKNASISVRAQDRYYSSSWSEWASVPCS
For B1, the “effect on Herceptin activity” value [13] is listed as “augmentation of Herceptin activity”.
